# According to ChEMBL document CHEMBL1201862, “PubChem BioAssay data set” (2004):
#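 Following 48 hours of exposure in 96-well plates, responses at five concentrations were used to interpolate endpoints linearly. GI50 is the concentration that inhibits growth by half.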 Activity calls are given as the source filed them. No stated cut-off is given here; in the data, active = GI50 up to about 1.1 µM and inactive = higher.
# Columns and labels:
# Experiment in all cases: growth of human tumour cells (NCI), 48 h
# 786-0 = test system: 786-0
# A498 = test system: A498
# A549 = test system: A549
# ACHN = test system: ACHN
# BT-549 = test system: BT-549
# CAKI-1 = test system: CAKI-1
# CCRF-CEM = test system: CCRF-CEM
# COLO 205 = test system: COLO 205
# DU-145 = test system: DU-145
# EKVX = test system: EKVX
# HCC 2998 = test system: HCC 2998
# HCT-116 = test system: HCT-116
# HCT-15 = test system: HCT-15
# HL-60 = test system: HL-60
# HOP-62 = test system: HOP-62
# HOP-92 = test system: HOP-92
# HT-29 = test system: HT-29
# Hs-578T = test system: Hs-578T
# IGROV-1 = test system: IGROV-1
# K562 = test system: K562
# KM12 = test system: KM12
# LOX IMVI = test system: LOX IMVI
# M14 = test system: M14
# MCF7 = test system: MCF7
# MDA-MB-231 = test system: MDA-MB-231
# MDA-MB-435 = test system: MDA-MB-435
# MDA-N = test system: MDA-N
# MOLT-4 = test system: MOLT-4
# Malme-3M = test system: Malme-3M
# NCI-H226 = test system: NCI-H226
# NCI-H23 = test system: NCI-H23
# NCI-H460 = test system: NCI-H460
# NCI-H522 = test system: NCI-H522
# NCI/ADR-RES = test system: NCI/ADR-RES
# OVCAR-4 = test system: OVCAR-4
# OVCAR-5 = test system: OVCAR-5
# OVCAR-8 = test system: OVCAR-8
# PC-3 = test system: PC-3
# RXF 393 = test system: RXF 393
# SF-268 = test system: SF-268
# SF-295 = test system: SF-295
# SF-539 = test system: SF-539
# SK-MEL-28 = test system: SK-MEL-28
# SK-MEL-2 = test system: SK-MEL-2
# SK-MEL-5 = test system: SK-MEL-5
# SK-OV-3 = test system: SK-OV-3
# SN12C = test system: SN12C
# SNB-19 = test system: SNB-19
# SNB-75 = test system: SNB-75
# SR = test system: SR
# SW-620 = test system: SW-620
# T47D = test system: T47D
# TK-10 = test system: TK-10
# U-251 = test system: U-251
# UACC-257 = test system: UACC-257
# UACC-62 = test system: UACC-62
# UO-31 = test system: UO-31
smiles,measurement,setting,value
CCOC(=O)CCC(NC(=O)Cc1ccc(Nc2nc3ccccc3nc2-c2ccccc2)cc1)C(=O)OCC (configuration not stated),GI50,786-0,7.83 µM (inactive)
same,GI50,A498,37 µM (inactive)
same,GI50,A549,79.6 µM (inactive)
same,GI50,ACHN,41.5 µM (inactive)
same,GI50,BT-549,46.8 µM (inactive)
same,GI50,CAKI-1,> 100 µM (inactive)
same,GI50,CCRF-CEM,> 100 µM (inactive)
same,GI50,COLO 205,> 100 µM (inactive)
same,GI50,DU-145,> 100 µM (inactive)
same,GI50,EKVX,63 µM (inactive)
same,GI50,HCC 2998,> 100 µM (inactive)
same,GI50,HCT-116,> 100 µM (inactive)
same,GI50,HCT-15,> 100 µM
same,GI50,HL-60,> 100 µM (inactive)
same,GI50,HOP-62,6.46 µM (inactive)
same,GI50,HOP-92,18.8 µM (inactive)
same,GI50,HT-29,> 100 µM (inactive)
same,GI50,Hs-578T,10.2 µM (inactive)
same,GI50,IGROV-1,51.8 µM (inactive)
same,GI50,K562,> 100 µM (inactive)
same,GI50,KM12,> 100 µM (inactive)
same,GI50,LOX IMVI,> 100 µM (inactive)
same,GI50,M14,65.6 µM (inactive)
same,GI50,MCF7,> 100 µM (inactive)
same,GI50,MDA-MB-231,16.9 µM (inactive)
same,GI50,MDA-MB-435,> 100 µM (inactive)
same,GI50,MDA-N,> 100 µM (inactive)
same,GI50,MOLT-4,> 100 µM (inactive)
same,GI50,Malme-3M,33 µM (inactive)
same,GI50,NCI-H226,72.1 µM (inactive)
same,GI50,NCI-H23,20.7 µM (inactive)
same,GI50,NCI-H460,> 100 µM (inactive)
same,GI50,NCI-H522,20.7 µM (inactive)
same,GI50,NCI/ADR-RES,50.5 µM (inactive)
same,GI50,OVCAR-4,6.79 µM (inactive)
same,GI50,OVCAR-5,93.8 µM (inactive)
same,GI50,OVCAR-8,25.2 µM (inactive)
same,GI50,PC-3,17.4 µM (inactive)
same,GI50,RXF 393,10.3 µM (inactive)
same,GI50,SF-268,5.26 µM (inactive)
same,GI50,SF-295,16.1 µM (inactive)
same,GI50,SF-539,20 µM (inactive)
same,GI50,SK-MEL-28,> 100 µM (inactive)
same,GI50,SK-MEL-2,16.5 µM (inactive)
same,GI50,SK-MEL-5,> 100 µM (inactive)
same,GI50,SK-OV-3,22.4 µM (inactive)
same,GI50,SN12C,> 100 µM (inactive)
same,GI50,SNB-19,24.2 µM (inactive)
same,GI50,SNB-75,8.79 µM (inactive)
same,GI50,SR,> 100 µM (inactive)
same,GI50,SW-620,> 100 µM (inactive)
same,GI50,T47D,> 100 µM (inactive)
same,GI50,TK-10,14 µM (inactive)
same,GI50,U-251,15.1 µM (inactive)
same,GI50,UACC-257,> 100 µM (inactive)
same,GI50,UACC-62,50.4 µM (inactive)
same,GI50,UO-31,> 100 µM (inactive)
